Target: T1, Dimer of Gag-Pol polyprotein [501-599] (Human immunodeficiency virus 1, UniProt P03367)
T1 construct: 501-599
Test: Protease Inhibition Assay
Conditions: pH 5.5; 30 °C
Experimental: All enzyme assays were performed under initial velocity and steady-state conditions. The conditions for the enzyme catalyzed hydrolysis of the cleavage site peptide VSQN-(beta-naphthylalanine)-PIV were established with respect to time and enzyme concentration to yield linear initial velocity data. […] The detection of product was monitored with fluorescence (excitation 270 nm, emission 330 nm).

| SMILES | IC50 [nM] |
| --- | --- |
| O=C(N[C@@H](Cc1ccccc1)[C@@H](O)C[C@]1(Cc2ccccc2)N=CC(C2c3ccccc3C[C@H]2O)C1=O)O[C@H]1CCOC1 (stereo partly drawn) [(3S)-oxolan-3-yl N-[(2S,3S)-4-[(2S)-2-benzyl-4-[(2R)-2-hydroxy-2,3-dihydro-1H-inden-1-yl]-3-oxo-2,3-dihydro-1H-pyrrol-2-yl]-3-hydroxy-1-phenylbutan-2-yl]carbamate] | 2 |
| O=C(N[C@@H](Cc1ccccc1)[C@@H](O)C[C@@H](Cc1ccccc1)C(=O)NC1c2ccccc2C[C@H]1O)O[C@H]1CCOC1 (stereo partly drawn) [(3S)-oxolan-3-yl N-[(2S,3S,5R)-5-benzyl-3-hydroxy-5-{[(2R)-2-hydroxy-2,3-dihydro-1H-inden-1-yl]carbamoyl}-1-phenylpentan-2-yl]carbamate] | 0.03 |
| CC(C)C[C@H](NC(=O)[C@H](Cc1ccccc1)C[C@H](O)[C@H](Cc1ccccc1)NC(=O)OC(C)(C)C)C(=O)N[C@@H](Cc1ccccc1)C(N)=O [Hydroxyethylene dipeptide isostere] | 0.6 |
| CC(C)C[C@@]1(C2C=N[C@@](Cc3ccccc3)(C[C@H](O)[C@H](Cc3ccccc3)NC(=O)OC(C)(C)C)C2=O)N=CC([C@@H](Cc2ccccc2)C(N)=O)C1=O (some centres not stated) [Pyrrolinone deriv. 1] | 10 |
| CC(C)C[C@@]1(C2C=N[C@@](Cc3ccccc3)(C[C@H](O)[C@H](Cc3ccccc3)NC(=O)O[C@H]3CCOC3)C2=O)N=CC([C@@H](Cc2ccccc2)C(N)=O)C1=O (some centres not stated) [Pyrrolinone deriv. 2] | 1.3 |
| CC(C)(C)OC(=O)N[C@@H](Cc1ccccc1)[C@@H](O)C[C@]1(Cc2ccccc2)N=CC(C2c3ccccc3C[C@H]2O)C1=O (some centres not stated) [Pyrrolinone deriv. 6] | 11.9 |
| CC(C)(C)OC(=O)N[C@@H](Cc1ccccc1)[C@@H](O)C[C@@H](Cc1ccccc1)C(=O)NC1c2ccccc2C[C@H]1O (stereo partly drawn) [tert-butyl N-[(2S,3S,5R)-5-benzyl-3-hydroxy-5-{[(2R)-2-hydroxy-2,3-dihydro-1H-inden-1-yl]carbamoyl}-1-phenylpentan-2-yl]carbamate] | 0.3 |
